Consider 28 molecules from US6750228B1, “Aromatic sulfone hydroxamic acid metalloprotease inhibitor” (priority 1997, dated 2004).

The structures appear in SMILES notation. Read-outs that look alike come from different tables or passages of the source.

Holding throughout (test): biochemical
In one test the target is T1, MMP-1 (Homo sapiens, UniProt P03956).
T1 construct: made in house; host or cells: transfected HT-1080 cells (provided by Dr. Harold Welgus, Washington University)
T1 sequence (P03956 100-469): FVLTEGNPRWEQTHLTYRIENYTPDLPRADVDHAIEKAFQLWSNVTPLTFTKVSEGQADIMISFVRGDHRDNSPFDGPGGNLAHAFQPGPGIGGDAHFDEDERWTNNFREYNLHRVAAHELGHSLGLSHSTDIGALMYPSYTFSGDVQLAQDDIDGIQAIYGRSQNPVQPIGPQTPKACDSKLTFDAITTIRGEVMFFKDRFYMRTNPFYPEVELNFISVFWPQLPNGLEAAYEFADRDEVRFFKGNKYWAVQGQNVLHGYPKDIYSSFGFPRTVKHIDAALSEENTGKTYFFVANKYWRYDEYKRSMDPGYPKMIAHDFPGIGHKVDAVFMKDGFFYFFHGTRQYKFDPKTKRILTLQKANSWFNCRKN
The note with it: read-out: MMP-1 IC50. Here is the method:
(§1) The compounds prepared in the manner described in the Examples above were assayed for activity by an in vitro assay. […] Briefly, 4-aminophenylmercuric acetate (APMA) or trypsin-activated MMPs were incubated with various concentrations of the inhibitor compound at room temperature for 5 minutes.
(§2) The expressed enzyme was purified first over a heparin agarose column and then over a chelating zinc chloride column. The proenzyme was activated by APMA for use in the assay.
(§3) MMP-1 expressed in transfected HT-1080 cells was provided by Dr. Harold Welgus of Washington University, St. Louis, Mo. The enzyme was also activated using APMA and was then purified over a hydroxamic acid column. Dr. Welgus also provided transfected HT-1080 cells that expressed MMP-9. Transfected cells that expressed MMP-2 were provided by Dr. Gregory Goldberg, also of Washington University. Studies with MMP-7 were carried out at pH 7.5 in the presence of 0.02% 2-mercaptoethanol using conditions otherwise similar to those used for the other enzymes. The enzyme was obtaind from a hMMP-7-expressing E. coli clone that was a gift of Dr. Steven Shapiro of Washington University, St. Louis, Mo. Further specifics for preparation and use of these enzymes can be found in the scientific literature describing these enzymes. See, for example, Enzyme Nomenclature, Academic Press, San Diego, Calif. […] The enzyme substrate is a methoxycoumarin-containing polypeptide having the following sequence:
(§4) MCA-ProLeuGlyLeuDpaAlaArgNH2, wherein MCA is methoxycoumarin and Dpa is 3-(2,4-dinitrophenyl)-L-2,3-diaminopropionyl alanine.
(§5) The buffer used for assays contained 100 mM Tris-HCl, 100 mM NaCl, 10 mM CaCl2 and 0.05 percent polyethyleneglycol (23) lauryl ether at a pH value of 7.5. Assays were carried out at room temperature, and dimethyl sulfoxide (DMSO) at a final concentration of 1 percent was used to dissolve inhibitor compound.
(§6) The assayed inhibitor compound in DMSO/buffer solution was compared to an equal amount of DMSO/buffer with no inhibitor as control using Microfluor White Plates (Dynatech). The inhibitor or control solution was maintained in the plate for 10 minutes and the substrate was added to provide a final concentration of 4 μM.
(§7) Inhibition was measured as a reduction in fluorescent intensity as a function of inhibitor concentration, using a Perkin Elmer L550 plate reader. The IC50 values were calculated from those values. The results are set forth in the Inhibition Table A, below, reported in terms of IC50 to three significant figures, where appropriate.

The target of another test is T2, MMP-2 (Homo sapiens, UniProt P08253).
T2 construct: made in house; provided by Dr. Gregory Goldberg, Washington University
T2 sequence (P08253 110-660): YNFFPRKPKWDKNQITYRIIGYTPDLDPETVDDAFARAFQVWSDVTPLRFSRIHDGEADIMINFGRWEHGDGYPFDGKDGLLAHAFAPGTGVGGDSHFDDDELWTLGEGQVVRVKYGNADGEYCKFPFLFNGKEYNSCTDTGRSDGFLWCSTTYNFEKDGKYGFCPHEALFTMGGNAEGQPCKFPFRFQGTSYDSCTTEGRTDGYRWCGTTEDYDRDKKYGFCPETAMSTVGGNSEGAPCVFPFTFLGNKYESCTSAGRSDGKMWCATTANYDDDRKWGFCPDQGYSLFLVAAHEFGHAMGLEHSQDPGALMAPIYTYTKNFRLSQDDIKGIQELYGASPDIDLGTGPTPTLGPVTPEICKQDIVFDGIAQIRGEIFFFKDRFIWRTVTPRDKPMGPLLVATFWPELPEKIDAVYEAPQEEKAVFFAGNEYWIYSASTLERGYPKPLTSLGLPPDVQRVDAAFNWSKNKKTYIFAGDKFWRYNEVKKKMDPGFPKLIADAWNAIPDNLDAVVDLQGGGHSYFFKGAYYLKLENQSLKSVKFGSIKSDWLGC
The method, then:
as §1, §2, §3, §4, §5, §6, §7

In a further test the target is T3, MMP-13 (Homo sapiens, UniProt P45452).
T3 construct: made in house; host or cells: baculovirus / insect cells
The method, then: as §1, §2, §3, §4, §5, §6, §7

Where [1] appears, read: recombinant human MMP-1, MCA peptide substrate 4 μM, pH 7.5, room temperature.
Setting [2] is: recombinant human MMP-2, MCA peptide substrate 4 μM, pH 7.5, room temperature, read-out: MMP-2 IC50.
The mark [3] stands for this setting: recombinant human MMP-13, MCA peptide substrate 4 μM, pH 7.5, room temperature, read-out: MMP-13 IC50.

By IC50 is commonly meant the concentration that inhibits the measured activity by half.

Take `O=C(C1CCN(c2ccc(S(=O)(=O)C3(C(=O)NO)CCOCC3)cc2)CC1)N1CCN(c2cnccn2)CC1` [Example 40]: the IC50 at MMP-1 is more than 10000 nM; at MMP-2 (MMP-2 IC50 (nM)), 900 nM; at MMP-13 (MMP-13 IC50 (nM), recombinant human MMP-13, MCA peptide substrate 4 μM, pH 7.5, room temperature), 26.8 nM.
In the case of `O=C(C1CCN(c2ccc(S(=O)(=O)C3(C(=O)NO)CCOCC3)cc2)CC1)N1CCN(c2ncc(C(F)(F)F)cc2Cl)CC1` [Example 41], the IC50 is more than 10000 nM on MMP-1, 5400 nM at MMP-2 (read-out: MMP-2 IC50) and 70 nM on MMP-13 (read-out: MMP-13 IC50).
The matching figures for `O=C(C1CCN(c2ccc(S(=O)(=O)C3(C(=O)NO)CCOCC3)cc2)CC1)N1CCN(CCN2CCOCC2)CC1` [Example 42]: more than 10000 nM, more than 10000 nM and 82.5 nM.
As to `O=C(C1CCN(c2ccc(S(=O)(=O)C3(C(=O)NO)CCOCC3)cc2)CC1)N1CCN(c2cccc(Cl)c2)CC1` [Example 43], the values for the IC50 at MMP-1, at MMP-2 (read-out: MMP-2 IC50) and at MMP-13 (read-out: MMP-13 IC50) were more than 10000 nM, 5000 nM and 17.9 nM, respectively.
The corresponding values for `O=C(C1CCN(c2ccc(S(=O)(=O)C3(C(=O)NO)CCOCC3)cc2)CC1)N1CCC(CO)CC1` [Example 44] are more than 10000 nM, 1050 nM and 19 nM.
With `CC1CCCN(C(=O)C2CCN(c3ccc(S(=O)(=O)C4(C(=O)NO)CCOCC4)cc3)CC2)C1` (stereo not drawn) [Example 47], the IC50 was more than 10000 nM on MMP-1, 6000 nM on MMP-2 (read-out: MMP-2 IC50) and 11.4 nM on MMP-13 (read-out: MMP-13 IC50).
The corresponding values for `O=C(C1CCN(c2ccc(S(=O)(=O)C3(C(=O)NO)CCOCC3)cc2)CC1)N1CCN(c2nccc(C(F)(F)F)n2)CC1` [Example 49] are more than 10000 nM, 6500 nM and 20 nM.
Take `CN(C)CCN(C)C(=O)C1CCN(c2ccc(S(=O)(=O)C3(C(=O)NO)CCOCC3)cc2)CC1` [Example 51]: the IC50 at MMP-1 (setting [1]) was more than 10000 nM; on MMP-2 (setting [2]), 7000 nM; on MMP-13 (setting [3]) it was 370 nM.
The matching figures for `CCN(Cc1ccncc1)C(=O)C1CCN(c2ccc(S(=O)(=O)C3(C(=O)NO)CCOCC3)cc2)CC1` [Example 52]: more than 10000 nM, 1900 nM and 90 nM.
Consider `O=C(NCC1CC1)C1CCN(c2ccc(S(=O)(=O)C3(C(=O)NO)CCOCC3)cc2)CC1` [Example 53], for which the IC50 is more than 10000 nM at MMP-1 (setting [1]), 1400 nM at MMP-2 (setting [2]) and 28.9 nM on MMP-13 (setting [3]).
As to `CC1CC(C)CN(C(=O)C2CCN(c3ccc(S(=O)(=O)C4(C(=O)NO)CCOCC4)cc3)CC2)C1` (stereo not drawn) [Example 54], the IC50 at MMP-1 (setting [1]) is more than 10000 nM; at MMP-2 (setting [2]), 5700 nM; on MMP-13 (setting [3]), 40 nM.
The matching figures for `CCCNC(=O)C1CCN(c2ccc(S(=O)(=O)C3(C(=O)NO)CCOCC3)cc2)CC1` [Example 57]: more than 10000 nM, 2700 nM and 80 nM.
In the case of `CC(C)CN(C)C(=O)C1CCN(c2ccc(S(=O)(=O)C3(C(=O)NO)CCOCC3)cc2)CC1` [Example 58], the values for the IC50 at MMP-1 (setting [1]), at MMP-2 (setting [2]) and on MMP-13 (setting [3]) were more than 10000 nM, 4000 nM and 22 nM, respectively.
For the molecule `CN(C(=O)C1CCN(c2ccc(S(=O)(=O)C3(C(=O)NO)CCOCC3)cc2)CC1)c1ccccc1` [Example 60], the IC50 at MMP-1 (setting [1]) was more than 10000 nM; on MMP-2 (setting [2]), 3700 nM; at MMP-13 (setting [3]), 13.9 nM.
On to `O=C(Nc1ccncc1)C1CCN(c2ccc(S(=O)(=O)C3(C(=O)NO)CCOCC3)cc2)CC1` [Example 62], for which the IC50 was more than 10000 nM at MMP-1 (setting [1]), 690 nM on MMP-2 (setting [2]) and 14 nM at MMP-13 (setting [3]).
In the case of `O=C(Nc1ccccc1OC(F)(F)F)C1CCN(c2ccc(S(=O)(=O)C3(C(=O)NO)CCOCC3)cc2)CC1` [Example 63], the figures for the IC50 at MMP-1 (setting [1]), on MMP-2 (setting [2]) and at MMP-13 (setting [3]) were more than 10000 nM, 2900 nM and 20 nM, respectively.
The matching figures for `O=C(Nc1cccc(OC(F)(F)F)c1)C1CCN(c2ccc(S(=O)(=O)C3(C(=O)NO)CCOCC3)cc2)CC1` [Example 68]: more than 10000 nM, 1800 nM and 13 nM.
With `O=C(Nc1cccc(Cl)c1)C1CCN(c2ccc(S(=O)(=O)C3(C(=O)NO)CCOCC3)cc2)CC1` [Example 70], the IC50 at MMP-1 (setting [1]) is more than 10000 nM; at MMP-2 (setting [2]), 700 nM; on MMP-13 (setting [3]), 10.6 nM.
On to `O=C(Nc1cccc(F)c1)C1CCN(c2ccc(S(=O)(=O)C3(C(=O)NO)CCOCC3)cc2)CC1` [Example 71], for which the IC50 is more than 10000 nM on MMP-1 (setting [1]), 270 nM on MMP-2 (setting [2]) and 7.7 nM at MMP-13 (setting [3]).
The corresponding values for `COc1cccc(NC(=O)C2CCN(c3ccc(S(=O)(=O)C4(C(=O)NO)CCOCC4)cc3)CC2)c1` [Example 72] are more than 10000 nM, 800 nM and 13 nM.
The matching figures for `O=C(Nc1ccc(OC(F)(F)F)cc1)C1CCN(c2ccc(S(=O)(=O)C3(C(=O)NO)CCOCC3)cc2)CC1` [Example 73]: more than 10000 nM, 2000 nM and 15.4 nM.
The corresponding values for `O=C(Nc1ccncn1)C1CCN(c2ccc(S(=O)(=O)C3(C(=O)NO)CCOCC3)cc2)CC1` [Example 74] are more than 10000 nM, 80 nM and 9 nM.
Consider `O=C(Nc1ccc(F)cc1)C1CCN(c2ccc(S(=O)(=O)C3(C(=O)NO)CCOCC3)cc2)CC1` [Example 75], for which the IC50 on MMP-1 (setting [1]) was more than 10000 nM; on MMP-2 (setting [2]), 500 nM; on MMP-13 (setting [3]) it was 11.5 nM.
The matching figures for `COc1ccc(NC(=O)C2CCN(c3ccc(S(=O)(=O)C4(C(=O)NO)CCOCC4)cc3)CC2)cc1` [Example 76]: more than 10000 nM, 250 nM and 9 nM.
The corresponding values for `CN(C)c1cccc(NC(=O)C2CCN(c3ccc(S(=O)(=O)C4(C(=O)NO)CCOCC4)cc3)CC2)c1` [Example 77] are more than 10000 nM, 3400 nM and 75 nM.
The matching figures for `CN(C)c1ccc(NC(=O)C2CCN(c3ccc(S(=O)(=O)C4(C(=O)NO)CCOCC4)cc3)CC2)cc1` [Example 78]: more than 10000 nM, 730 nM and 11.7 nM.
On to `COc1ccccc1C1CCN(c2ccc(S(=O)(=O)C3(C(=O)NO)CCOCC3)cc2)CC1` [Example 79], for which the results for the IC50 on MMP-1, on MMP-2 (MMP-2 IC50 (nM)) and on MMP-13 (read-out: MMP-13 IC50) were more than 10000 nM, 2000 nM and 20 nM, respectively.
Regarding `COc1ccc(C(=O)C2CCN(c3ccc(S(=O)(=O)C4(C(=O)NO)CCOCC4)cc3)CC2)cc1` [Example 80], the IC50 at MMP-1 (setting [1]) is more than 10000 nM; at MMP-2 (setting [2]) it was 562 nM; on MMP-13 (setting [3]), 4.1 nM.
